Reference: patent publication US20160002315A1, “APOLIPOPROTEIN MIMETICS AND USES THEREOF” (UAB RESEARCH FOUNDATION, priority 2013, published 2016)

Key:
VLDL = settings: peptide interacting with VLDL; cited from earlier work
Apo E null mice [1] = assay: Study One: plasma markers of oxidative stress (ROS, PON activity) in Apo E null mice; assay type: in vivo
Method: (§1) The mice were fed a Western diet for 6 weeks to elevate cholesterol. The animals were then switched to a chow diet for two weeks after which they were treated with peptide or saline for 4 weeks. Treatment was then withdrawn for 4 weeks while the animals remained on a chow diet. After the 4 week post treatment phase, the mice were euthanized and tissue dissection and sample collection was performed.
(§2) Blood was drawn after 4 weeks of treatment at week 26 and analyzed for cholesterol. […] However, Apo E mimetic treatment did improve plasma marker of oxidative stress, such as ROS and PON activity. […] Because ROS have been implicated in the pathogenesis of atherosclerosis, the decrease in ROS by treatment with an Apo E mimetic is beneficial.
The PON gene family has anti-atherosclerotic effects, such as preventing oxidation of LDLs. Thus, the increase in PON activity in hE18A treated mice is beneficial in the atherosclerosis animal model.
(§3) The mice were euthanized at week 30, which is four weeks post treatment with Apo E mimetic.

Apo E −/− mice [2] = assay: Study Two: plasma and liver lipids in Apo E -/- mice; assay type: in vivo; settings: four weeks after cessation of treatment
Method: (§4) The mice were fed a lard diet for seven weeks and then were switched to a chow diet for four weeks. The mice were treated two times a week for four weeks and then treatment was withdrawn for four weeks. Termination 1 represents the time point immediately following termination of the Apo E mimetic treatment. Termination 2 represents the time point immediately following the four weeks of treatment withdrawal. Lipids were analyzed in the plasma (cholesterol, triglycerides) and in the liver (cholesterol esters, unesterified cholesterol, triglycerides).

Apo E −/− mice [3] = assay: Study Two: plaques in the aorta of Apo E -/- mice; assay type: in vivo; settings: 5 mg/kg
Method: as §4

cells = settings: peptide-associated VLDL, absence of apoE; cited from earlier work
Apo E null mice [4] = assay: Study One: plasma cholesterol and triglycerides in Apo E null mice; assay type: in vivo
Method: as §1, §2, §3

Apo E null mice [5] = assay: Study One: atherosclerotic lesions (en face aorta, aortic sinus, macrophage coverage) in Apo E null mice; assay type: in vivo
Method: as §1, §3

MEF 1 cells = MEF 1 cells with induced LDL receptors; cited from earlier work
[6] = four weeks after the end of treatment
[7] = 4 weeks post treatment (study termination)

Ac-D-W-L-K-A-F-Y-D-K-V-A-E-K-L-K-E-A-F-NH2 (Ac-DWLKAFYDKVAEKLKEAF-NH2) [Ac-18A-NH2, control peptide, reference compound]
displacement of apo E from VLDL (VLDL): displacement of apo E from VLDL

Ac-LRKLRKRLLRDWLKAFYDKVAEKLKEAF-NH2 [Ac-hE18A-NH2, end protected analog of hE-18A]
PON-1 levels in HDL fractions (Apo E null mice [1]; Apo E null mice, HDL fractions 29-32): dramatic increase
cholesterol levels (Apo E −/− mice [2]): about 650 mg/dl
decrease of atherosclerotic lesions in the thoracic aorta (Apo E −/− mice [3]): about 50%
reduction of lesions in the aortic arch (Apo E −/− mice [3]; at the end of treatment): about 35%
enhancement of degradation of VLDL compared to VLDL alone (cells): three
enhancement of uptake of VLDL compared to VLDL alone (cells): six
displacement of apo E from VLDL (VLDL): displacement of apo E from VLDL

LRKLRKRLLRDWLKAFYDKVAEKLKEAF (ApoE mimetic) [hE18A]
plasma cholesterol levels (Apo E null mice [4]; end of 4 weeks of treatment, compared to mR18L and saline): better in reducing plasma cholesterol levels
cholesterol levels (Apo E null mice [4]; [6]): not significantly different
PON-1 activity (Apo E null mice [1]; 4 weeks post treatment, over saline and mR18L): still increased
reactive oxygen species (ROS) (Apo E null mice [1]; after 4 weeks of treatment, compared to saline): significant decrease
paraoxonase (PON) activity (Apo E null mice [1]; after 4 weeks of treatment, compared to saline and mR18L): significant increase
ROS levels (Apo E null mice [1]; [6]): not significantly different
atherosclerotic lesion area in the aortic sinus (Apo E null mice [5]; [7]): significantly decreased
macrophage coverage of the aortic sinus (Apo E null mice [5]; [7]): non-significant trend towards a decrease
atherosclerotic lesion area (en face aorta) (Apo E null mice [5]; 4 weeks post treatment, compared to saline or mR18L): significantly reduced

LRKMRKRLMR-18A [Ac-mE-18A-NH2]
enhancement of LDL internalization (MEF 1 cells): three

LRRLRRRLLR-18A [Ac-hE(R)-18A-NH2]
enhancement of LDL internalization (MEF 1 cells): seven
